Test results reported in patent publication US8791102B2, “Acetanilide sphingosine-1-phosphate receptor antagonists” (Exelixis, Inc., priority 2008, dated 2014).

Each compound was assayed against T1, human S1P1 receptors (Homo sapiens, UniProt P21453) (assay: S1P1R antagonist assay (fluorescent membrane potential dye, cAMP readout)). Conditions: HEK293 cells expressing human S1P1 receptors and CNG channel; 500 nM NECA; S1P1R agonist 10 nM; 90 minutes; read-out: EC50 or IC50 value.
T1 construct: host or cells: HEK293
T1 sequence (P21453 whole entry): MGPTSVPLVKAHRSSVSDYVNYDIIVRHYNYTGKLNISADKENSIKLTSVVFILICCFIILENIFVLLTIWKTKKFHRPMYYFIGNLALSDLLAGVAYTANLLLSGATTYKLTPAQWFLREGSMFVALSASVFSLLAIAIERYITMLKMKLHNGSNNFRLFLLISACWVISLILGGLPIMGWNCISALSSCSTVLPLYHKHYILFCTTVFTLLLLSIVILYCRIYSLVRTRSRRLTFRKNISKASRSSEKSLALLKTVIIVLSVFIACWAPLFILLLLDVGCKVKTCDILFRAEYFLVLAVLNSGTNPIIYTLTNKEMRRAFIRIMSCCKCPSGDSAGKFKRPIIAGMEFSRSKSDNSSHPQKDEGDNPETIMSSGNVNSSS
Type: cell-based
With `Cc1cc(F)ccc1C[C@@H]1C[C@@H](C(=O)Nc2ccc(Oc3ccc(F)cc3)cc2)N(C(=O)Cn2ccnn2)C1` [Compound 6, (2S,4R)-1-(2-(1H-1,2,3-triazol-1-yl)acetyl)-4-(4-fluoro-2-methylbenzyl)-N-(4-(4-fluorophenoxy)phenyl)pyrrolidine-2-carboxamide] the IC50 was at most 300 nM. Work on `O=C(NC(COCc1ccccc1)C(=O)Nc1ccc(Oc2ccccc2)cc1)c1ccc2ccccc2c1` (stereo not drawn) [Compound 288, N-(2-oxo-1-{[(phenylmethyl)oxy]methyl}-2-{[4-(phenyloxy)phenyl]amino}ethyl)naphthalene-2-carboxamide] yielded an IC50 of over 1000 nM. `O=C(CSc1ccccc1)NC(COCc1ccccc1)C(=O)Nc1ccc(Oc2ccccc2)cc1` (stereo not drawn) [Compound 313, N-(2-oxo-1-{[(phenylmethyl)oxy]methyl}-2-{[4-(phenyloxy)phenyl]amino}ethyl)-2-(phenylthio)acetamide] gave an IC50 of 300 to 1000 nM. `O=C(CCCCCN1C(=O)C=CC1=O)NC(COCc1ccccc1)C(=O)Nc1ccc(Oc2ccccc2)cc1` (stereo not drawn) [Compound 15, N-(3-(benzyloxy)-1-oxo-1-(4-phenoxyphenylamino)propan-2-yl)-6-(2,5-dioxo-2,5-dihydro-1H-pyrrol-1-yl)hexanamide] was tested, and the IC50 was over 1000 nM. Work on `CC(=O)CCC(=O)NC(COCc1ccccc1)C(=O)Nc1ccc(Oc2ccccc2)cc1` (stereo not drawn) [Compound 347, 4-oxo-N-(2-oxo-1-{[(phenylmethyl)oxy]methyl}-2-{[4-(phenyloxy)phenyl]amino}ethyl)pentanamide] yielded an IC50 of over 1000 nM. Work on `COc1ccc(C2(C(=O)NC(COCc3ccccc3)C(=O)Nc3ccc(Oc4ccccc4)cc3)CC2)cc1` (stereo not drawn) [Compound 360, N-(2-oxo-1-{[(phenylmethyl)oxy]methyl}-2-{[4-(phenyloxy)phenyl]amino}ethyl)-1-(4-methoxyphenyl)cyclopropanecarboxamide] yielded an IC50 of over 1000 nM. `Cc1cc(Oc2ccc(NC(=O)[C@@H]3C[C@@H](Cc4ccc(F)cc4)CN3C(=O)Cn3cncn3)cc2)ccc1F` [Compound 73, (2S,4R)-1-(2-(1H-1,2,4-triazol-1-yl)acetyl)-N-(4-(4-fluoro-3-methylphenoxy)phenyl)-4-(4-fluorobenzyl)pyrrolidine-2-carboxamide] gave an IC50 of at most 300 nM. `N#Cc1ccc(C(=O)NC(COCc2ccccc2)C(=O)Nc2ccc(Oc3ccccc3)cc2)cc1` (stereo not drawn) [Compound 380, 4-cyano-N-(2-oxo-1-{[(phenylmethyl)oxy]methyl}-2-{[4-(phenyloxy)phenyl]amino}ethyl)benzamide] was tested, and the IC50 was over 1000 nM. Work on `O=C(Nc1ccc(Oc2ccc(F)cc2)cc1)[C@@H]1C[C@@H](Oc2ccccc2)CN1C(=O)Cn1cncn1` [Compound 259, (2S,4R)-1-(2-(1H-1,2,4-triazol-1-yl)acetyl)-N-(4-(4-fluorophenoxy)phenyl)-4-phenoxypyrrolidine-2-carboxamide] yielded an IC50 of 300 to 1000 nM. Compound `O=C(Nc1ccc(Oc2ccc(F)cc2)cc1)[C@@H]1C[C@@H](Cc2ccccc2)CN1C(=O)CN1CCc2ccccc2C1` [Compound 82, (2S,4R)-4-benzyl-1-(2-(3,4-dihydroisoquinolin-2(1H)-yl)acetyl)-N-(4-(4-fluorophenoxy)phenyl)pyrrolidine-2-carboxamide] has an IC50 of at most 300 nM. `CCN(CC)C(=O)C1CCCN(CC(=O)N[C@@H](COCc2ccccc2)C(=O)Nc2ccc(Oc3ccc(F)cc3)cc2)C1` (stereo partly drawn) [Compound 231, 1-(2-((S)-3-(benzyloxy)-1-(4-(4-fluorophenoxy)phenylamino)-1-oxopropan-2-ylamino)-2-oxoethyl)-N,N-diethylpiperidine-3-carboxamide] was tested, and the IC50 was 300 to 1000 nM. Compound `O=C(CN1CCSCC1)N[C@@H](COCc1ccccc1)C(=O)Nc1ccc(Oc2ccc(F)cc2)cc1` [Compound 266, (S)-3-(benzyloxy)-N-(4-(4-fluorophenoxy)phenyl)-2-(2-thiomorpholinoacetamido)propanamide] has an IC50 of 300 to 1000 nM. Compound `O=C(Cc1c[nH]cn1)N[C@@H](COCc1ccccc1)C(=O)Nc1ccc(Oc2ccc(F)cc2)cc1` [Compound 131, (S)-2-(2-(1H-imidazol-5-yl)acetamido)-3-benzyloxy-N-(4-(4-fluorophenoxy)phenyl)propanamide] has an IC50 of at most 300 nM. Work on `O=C(CN1CCN(c2ccc(F)cc2)CC1)N[C@@H](COCc1ccccc1)C(=O)Nc1ccc(Oc2ccc(F)cc2)cc1` [Compound 218, (S)-3-(benzyloxy)-N-(4-(4-fluorophenoxy)phenyl)-2-(2-(4-(4-fluorophenyl)piperazin-1-yl)acetamido)propanamide] yielded an IC50 of 300 to 1000 nM. `O=C(NC(COCc1ccccc1)C(=O)Nc1ccc(Oc2ccccc2)cc1)c1sc2ccccc2c1Cl` (stereo not drawn) [Compound 297, 3-chloro-N-(2-oxo-1-{[(phenylmethyl)oxy]methyl}-2-{[4-(phenyloxy)phenyl]amino}ethyl)-1-benzothiophene-2-carboxamide] gave an IC50 of over 1000 nM. Work on `O=C(CCc1cccs1)NC(COCc1ccccc1)C(=O)Nc1ccc(Oc2ccccc2)cc1` (stereo not drawn) [Compound 403, N-(2-oxo-1-{[(phenylmethyl)oxy]methyl}-2-{[4-(phenyloxy)phenyl]amino}ethyl)-3-(thiophen-2-yl)propanamide] yielded an IC50 of 300 to 1000 nM. `CSCCC(=O)N1C[C@H](Cc2ccccc2)C[C@H]1C(=O)Nc1ccc(Oc2ccc(F)cc2)cc1` [Compound 85, (2S,4R)-4-benzyl-N-(4-(4-fluorophenoxy)phenyl)-1-(3-(methylthio)propanoyl)pyrrolidine-2-carboxamide] showed an IC50 of at most 300 nM. `O=C(Nc1ccc(Oc2ccc(F)cc2)cc1)[C@@H]1C[C@@H](OCc2ccccc2)CN1C(=O)Cn1cncn1` [Compound 252, (2S,4R)-1-(2-(1H-1,2,4-triazol-1-yl)acetyl)-4-(benzyloxy)-N-(4-(4-fluorophenoxy)phenyl)pyrrolidine-2-carboxamide] was tested, and the IC50 was at most 300 nM. For `O=C(NC(COCc1ccccc1)C(=O)Nc1ccc(Oc2ccccc2)cc1)c1ccc(F)cc1C(F)(F)F` (stereo not drawn) [Compound 330, 4-fluoro-N-(2-oxo-1-{[(phenylmethyl)oxy]methyl}-2-{[4-(phenyloxy)phenyl]amino}ethyl)-2-(trifluoromethyl)benzamide], the IC50 was over 1000 nM. `CS(=O)(=O)CC(=O)NC(COCc1ccccc1)C(=O)Nc1ccc(Oc2ccccc2)cc1` (stereo not drawn) [Compound 19, 3-(benzyloxy)-2-(2-(methylsulfonyl)acetamido)-N-(4-phenoxyphenyl)propanamide] showed an IC50 of over 1000 nM. In the case of `O=C(Cc1cnc[nH]1)N[C@@H](COCc1ccccc1)C(=O)Nc1ccc(Oc2ccccc2)c(Cl)c1` [Compound 147, (S)-2-(2-(1H-imidazol-4-yl)acetamido)-3-(benzyloxy)-N-(3-chloro-4-phenoxyphenyl)propanamide], the IC50 is reported as at most 300 nM. Work on `O=C(Cc1coc(-c2ccccc2)n1)N[C@@H](COCc1ccc(F)cc1)C(=O)Nc1ccc(Oc2ccc(F)cc2)cc1` [Compound 44, (S)-3-(4-fluorobenzyloxy)-N-(4-(4-fluorophenoxy)phenyl)-2-(2-(2-phenyloxazol-4-yl)acetamido)propanamide] yielded an IC50 of over 1000 nM. For `O=C(NC(COCc1ccccc1)C(=O)Nc1ccc(Oc2ccccc2)cc1)c1ccnc2ccccc12` (stereo not drawn) [Compound 365, N-(2-oxo-1-{[(phenylmethyl)oxy]methyl}-2-{[4-(phenyloxy)phenyl]amino}ethyl)quinoline-4-carboxamide], the IC50 was over 1000 nM. With `CSc1ncccc1C(=O)NC(COCc1ccccc1)C(=O)Nc1ccc(Oc2ccccc2)cc1` (stereo not drawn) [Compound 28, N-(3-(benzyloxy)-1-oxo-1-(4-phenoxyphenylamino)propan-2-yl)-2-(methylthio)nicotinamide] the IC50 was over 1000 nM. With `CCCCC(CC)C(=O)NC(COCc1ccccc1)C(=O)Nc1ccc(Oc2ccccc2)cc1` (stereo not drawn) [Compound 282, N-(3-(benzyloxy)-1-oxo-1-(4-phenoxyphenylamino)propan-2-yl)-2-ethylhexanamide] the IC50 was over 1000 nM. Compound `O=C(Nc1ccc(Oc2ccc(F)cc2)cc1)[C@@H]1C[C@@H](Cc2cccc(F)c2)CN1C(=O)Cn1cncn1` [Compound 51, (2S,4R)-1-(2-(1H-1,2,4-triazol-1-yl)acetyl)-4-(3-fluorobenzyl)-N-(4-(4-fluorophenoxy)phenyl)pyrrolidine-2-carboxamide] has an IC50 of at most 300 nM. `O=C(Cc1ccccc1)N[C@@H](COCc1ccccc1)C(=O)Nc1ccc(Oc2ccc(F)cc2)cc1` [Compound 249, (S)-3-(benzyloxy)-N-(4-(4-fluorophenoxy)phenyl)-2-(2-phenylacetamido)propanamide] gave an IC50 of 300 to 1000 nM. `O=C(CCc1cccnc1)NC(COCc1ccccc1)C(=O)Nc1ccc(Oc2ccccc2)cc1` (stereo not drawn) [Compound 369, N-(2-oxo-1-{[(phenylmethyl)oxy]methyl}-2-{[4-(phenyloxy)phenyl]amino}ethyl)-3-(pyridin-3-yl)propanamide] showed an IC50 of over 1000 nM. `O=C(NC(COCc1ccccc1)C(=O)Nc1ccc(Oc2ccccc2)cc1)c1ccc(OC(F)F)cc1` (stereo not drawn) [Compound 399, 4-[(difluoromethyl)oxy]-N-(2-oxo-1-{[(phenylmethyl)oxy]methyl}-2-{[4-(phenyloxy)phenyl]amino}ethyl)benzamide] showed an IC50 of over 1000 nM. For `O=C(NC(COCc1ccccc1)C(=O)Nc1ccc(Oc2ccccc2)cc1)c1cccc(Cl)c1F` (stereo not drawn) [Compound 299, 3-chloro-2-fluoro-N-(2-oxo-1-{[(phenylmethyl)oxy]methyl}-2-{[4-(phenyloxy)phenyl]amino}ethyl)benzamide], the IC50 was over 1000 nM. `CCC(C)CC(=O)NC(COCc1ccccc1)C(=O)Nc1ccc(Oc2ccccc2)cc1` (stereo not drawn) [Compound 385, 3-methyl-N-(2-oxo-1-{[(phenylmethyl)oxy]methyl}-2-{[4-(phenyloxy)phenyl]amino}ethyl)pentanamide] was tested, and the IC50 was over 1000 nM. In the case of `O=C(Nc1ccc(Oc2ccc(F)cc2)cc1)[C@@H]1CN(C(=O)OCc2ccccc2)CCN1C(=O)Cc1c[nH]cn1` [Compound 257, (S)-benzyl 4-(2-(1H-imidazol-4-yl)acetyl)-3-(4-(4-fluorophenoxy)phenylcarbamoyl)piperazine-1-carboxylate], the IC50 is reported as 300 to 1000 nM. `CN(C)c1ccc(C(=O)NC(COCc2ccccc2)C(=O)Nc2ccc(Oc3ccccc3)cc2)cc1` (stereo not drawn) [Compound 294, 4-(dimethylamino)-N-(2-oxo-1-{[(phenylmethyl)oxy]methyl}-2-{[4-(phenyloxy)phenyl]amino}ethyl)benzamide] was tested, and the IC50 was over 1000 nM.
